Results taken from the supplement of paper PMC10307832.

How the values were obtained:
Test in all cases: relative viability (nuclei count vs DMSO), 5 days (fraction); higher = more cells survive
Apatinib + Pemetrexed = compound: N#CC1(c2ccc(NC(=O)c3cccnc3NCc3ccncc3)cc2)CCCC1 [Apatinib] + Nc1nc2[nH]cc(CCc3ccc(C(=O)N[C@@H](CCC(=O)O)C(=O)O)cc3)c2c(=O)[nH]1 [Pemetrexed] (partner 0.2 µM)
Outline: (§1)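 After 5 days of treatment, lung cancer cells in 1536-well plates were fixed and stained in a single step (final 0.05% Triton X-100, 1% formaldehyde, 1 ug/ml Hoechst) and their nuclei counted on 4× images. Treatment had been applied by pin tool the day after seeding as one drug alone or as a fixed anchor-drug dose with five library-drug doses (not always all listed) in √10 steps. Relative viability is the nuclei count of treated wells divided by that of vehicle wells, and values are medians of duplicate plates.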

Apatinib + OSI-027 = compound: N#CC1(c2ccc(NC(=O)c3cccnc3NCc3ccncc3)cc2)CCCC1 [Apatinib] + COc1cccc2cc(-c3nc([C@H]4CC[C@H](C(=O)O)CC4)n4ncnc(N)c34)[nH]c12 [OSI-027] (partner 0.5 µM)
Outline: as §1

Apatinib + Lapatinib = compound: N#CC1(c2ccc(NC(=O)c3cccnc3NCc3ccncc3)cc2)CCCC1 [Apatinib] + CS(=O)(=O)CCNCc1ccc(-c2ccc3ncnc(Nc4ccc(OCc5cccc(F)c5)c(Cl)c4)c3c2)o1 [Lapatinib] (partner 2 µM)
Outline: as §1

Metformin + Foretinib = compound: CN(C)C(=N)NC(=N)N [Metformin] + COc1cc2c(Oc3ccc(NC(=O)C4(C(=O)Nc5ccc(F)cc5)CC4)cc3F)ccnc2cc1OCCCN1CCOCC1 [Foretinib] (partner 0.25 µM)
Outline: as §1

Row | Cell Line | relative viability (Apatinib + Pemetrexed; first compound 0.08 µM) | relative viability (Apatinib + Pemetrexed; first compound 0.253 µM) | relative viability (Apatinib + Pemetrexed; first compound 0.8 µM) | relative viability (Apatinib + Pemetrexed; first compound 2.53 µM) | relative viability (Apatinib + Pemetrexed; first compound 8 µM) | relative viability (Apatinib + OSI-027; first compound 0.08 µM) | relative viability (Apatinib + OSI-027; first compound 0.253 µM) | relative viability (Apatinib + OSI-027; first compound 0.8 µM) | relative viability (Apatinib + OSI-027; first compound 2.53 µM) | relative viability (Apatinib + OSI-027; first compound 8 µM) | relative viability (Apatinib + Lapatinib; first compound 0.08 µM) | relative viability (Apatinib + Lapatinib; first compound 0.253 µM) | relative viability (Apatinib + Lapatinib; first compound 0.8 µM) | relative viability (Apatinib + Lapatinib; first compound 2.53 µM) | relative viability (Apatinib + Lapatinib; first compound 8 µM) | relative viability (Metformin + Foretinib; first compound 10 µM) | relative viability (Metformin + Foretinib; first compound 31.62 µM) | relative viability (Metformin + Foretinib; first compound 100 µM) | relative viability (Metformin + Foretinib; first compound 316.23 µM) | relative viability (Metformin + Foretinib; first compound 1000 µM)
1 | RERF-LC-KJ | 0.493 | 0.466 | 0.381 | 0.451 | 0.327 | 0.554 | 0.592 | 0.533 | 0.51 | 0.497 | 0.787 | 0.851 | 0.817 | 0.693 | 0.698 | 0.775 | 0.796 | 0.804 | 0.763 | 0.935
2 | NCI-H647 | 0.176 | 0.172 | 0.165 | 0.139 | 0.127 | 0.77 | 0.619 | 0.576 | 0.593 | 0.528 | 1.35 | 1.13 | 0.925 | 1.02 | 0.858 | 1.08 | 1.07 | 1.26 | 0.932 | 1.1
3 | NCI-H1395 | 0.913 | 0.802 | 0.881 | 0.685 | 0.635 | 0.614 | 0.701 | 0.662 | 0.693 | 0.639 | 0.848 | 1.31 | 1.17 | 0.855 | 0.901 | 0.965 | 1 | 1.04 | 0.883 | 0.997
4 | NCI-H522 | 0.986 | 0.975 | 0.993 | 0.66 | 0.748 | 0.731 | 0.752 | 0.703 | 0.72 | 0.691 | – | – | – | – | – | – | – | – | – | –
5 | NCI-H322M | 0.605 | 0.633 | 0.623 | 0.593 | 0.54 | 0.551 | 0.533 | 0.52 | 0.518 | 0.46 | 0.571 | 0.465 | 0.57 | 0.64 | 0.584 | 1.14 | 1.03 | 1.05 | 1.1 | 0.935
6 | H3255 | 0.521 | 0.545 | 0.537 | 0.518 | 0.533 | 0.551 | 0.569 | 0.539 | 0.51 | 0.535 | 0.235 | 0.227 | 0.231 | 0.311 | 0.286 | 0.863 | 0.96 | 0.91 | 0.747 | 0.877
7 | 201T | 0.325 | 0.37 | 0.297 | 0.334 | 0.316 | – | 0.763 | 0.718 | 0.723 | 0.751 | 1.07 | 0.976 | 0.983 | 0.975 | 1.01 | – | 1.21 | 1.38 | 1.01 | 0.824
